The term pEC50 denotes −log10 of the EC50, conventionally taken in molar units. The MIC is the smallest concentration in the dilution series that meets the test's criterion for growth inhibition.

Data set [1] deals with B16-F10 cells. The data set is described as follows: Growth inhibition of murine melanoma B16-F10 cells (Resazurin). In kind it is cell-based. To be noted: Mus musculus, 48 hours of drug exposure. How it is done: B16-F10 (ATCC; CRL-6475) a murine melanoma cell line was maintained in complete Dulbecco's Modification of Eagle's Medium (DMEM) (DMEM supplemented with 10% (v/v) Fetal bovine serum, 2 mM glutamine, 10 mM HEPES and Penicillin/Streptomycin at 100 IU/ml and 100 μg/ml respectively). The cells were cultured in an incubator at 37° C, 5% CO2 and 95% humidified air.
For cell growth inhibition assays, B16-F10 cells were seeded at 1.25×10^3 cells/well in 90 μl complete media into Coming 3904 black-walled, clear-bottom tissue culture plates and the plates were incubated overnight to allow cells to establish and enter log phase growth. 20mM stock solutions of the compound of Formula (VI) were prepared in 100% DMSO. 10× concentrated serial dilutions of the compound of Formula (VI) were prepared in appropriate culture medium. […]
Following 48 hours of drug exposure, 10 μl of 0.2 mg/ml Resazurin (obtained from Sigma-Aldrich Chemical Co.) in Mg^2+, Ca^2+ free phosphate buffered saline was added to each well and the plates were returned to the incubator for 3–6 hours. Since living cells metabolize Resazurin, the fluorescence of the reduction product of Resazurin was measured using a Fusion microplate fluorometer (Packard Bioscience) with λex=535 nm and λem=590 nm filters. […]
Background: Resazurin is reduced to fluorescent resorufin, in cell work by metabolically active cells.

Data set [2] relates to Staphylococcus aureus - MRSA. The data set is described as follows: MIC, serial micro broth dilution (NCCLS M7-A5). Format: cell-based. The conditions noted are these: Mueller-Hinton broth, 35° C., 18 hours. How it is done:
(§1) Minimum inhibitory concentrations (MICs) were determined according to the National Committee for Clinical Laboratory Standards (NCCLS) susceptibility test guideline M7-A5 to quantify the anti-microbial activity of the compound of Formula (VI) against both gram-positive and gram-negative bacteria. Ferraro, M. 2001 Methods for Dilution Antimicrobial Susceptibility Tests for Bacteria that Grow Aerobically; Approved Standard (NCCLS), Villanova, which is incorporated herein by reference in its entirety. The serial micro broth dilution method used BBL Mueller-Hinton broth (cation adjusted) except for the […] which was tested in BBL Mueller-Hinton broth II (cation adjusted) with lysed horse blood. The final bacterial inoculum contained approximately 5×10^5 CFU/ml and was run on microtiter plates. The volume of each well was 100 μl and the plates were incubated at 35° C. for 18 hours. The MIC was defined as the lowest drug concentration that prevented visible growth of the bacterium. The compound was active versus several microorganisms, especially gram-positive species.

Data set [3] has as its system Streptococcus pneumoniae - penicillin sensitive. The data set is described as follows: MIC, serial micro broth dilution (NCCLS M7-A5). Format: cell-based. To be noted: Mueller-Hinton broth II with lysed horse blood, 35° C., 18 hours. How it is done: as §1
(In general: Dilution methods test growth across graded concentrations, often in twofold steps.)

Data set [4] deals with E. coli - imp. The data set is described as follows: MIC, serial micro broth dilution (NCCLS M7-A5). Format: cell-based. The conditions noted are these: Escherichia coli, 18 h. How it is done: as §1
The subject of data set [5] is Streptococcus pneumoniae - penicillin resistant. The data set is described as follows: MIC, serial micro broth dilution (NCCLS M7-A5). In kind it is cell-based. To be noted: Mueller-Hinton broth II with lysed horse blood, 35° C., 18 hours. How it is done:
as §1

Data set [6] relates to Staphylococcus aureus - MSSA. The data set is described as follows: MIC, serial micro broth dilution (NCCLS M7-A5). Format: cell-based. The conditions noted are these: Mueller-Hinton broth, 35° C., 18 hours. How it is done:
as §1

Data set [7] deals with E. faecium - Van^r. The data set is described as follows: MIC, serial micro broth dilution (NCCLS M7-A5). Format: cell-based. The conditions noted are these: Enterococcus faecium, Mueller-Hinton broth, 35° C., 18 hours. How it is done: as §1
Data set [8] concerns E. faecalis - Van^s. The data set is described as follows: MIC, serial micro broth dilution (NCCLS M7-A5). Format: cell-based. The conditions noted are these: Enterococcus faecalis, Mueller-Hinton broth, 35° C., 18 hours. How it is done:
as §1

A short description of data set [9]: Qualitative solubility of the isolated compound. Format: physicochemical. The conditions noted are these: CHCl3, MeOH, and DMSO.

The structures appear in SMILES notation. pEC50: −log10 of the molar value.

`COC(CC(C)C(O)/C=C/C=C/CNC(=O)C(C)(C)C(O)\C(C)=C/C=C\C=C\C(C)=C(/C)[N+](=O)[O-])C1(O)C(C)C(=O)N(C)C12C(=O)OC2C` (stereo not drawn) [Formula (VI)]: the pEC50 in data set [1] was 5.02. The MIC came to 5 µg/mL in data set [2]; 2 µg/mL in [3]; 12 µg/mL in [4]; 1.5 µg/mL in data set [5]; 4 µg/mL in [6]; 20 µg/mL in data set [7]. In [8], this molecule registered an MIC of 14 µg/mL. For the same molecule, the “solubility (qualitative)” value in [9] was “qualitatively soluble in CHCl3, MeOH, and DMSO”.

The record behind these values is patent US7250438B2, “Anti-bacterial and anti-cancer spiro beta-lactone/gamma-lactams” (Nereus Pharmaceuticals, Inc., priority 2004, dated 2007).
